From PMC9775322, “An Integrated Analysis of Mechanistic Insights into Biomolecular Interactions and Molecular Dynamics of Bio-Inspired Cu(II) and Zn(II) Complexes towards DNA/BSA/SARS-CoV-2 3CL^pro by Molecular Docking-Based Virtual Screening and FRET Detection” (Biomolecules, 2022)
“And” between values parts separate entries of the source, which are not always exact repeats. Equal values may be shown once.

Assays:
BSA = biological target: T1, BSA (Bos taurus, UniProt P02769); test: BSA binding by fluorescence emission titration; design: species or system bovine; details: for KSV (Stern-Volmer binding constant), BSA binding, Method–I / Kass (association binding constant), BSA binding, Stern–Volmer Method–II / n (number of binding sites), BSA binding, Stern–Volmer Method–II: BSA emission 350 nm; for Kq (bimolecular quenching rate constant), BSA binding, Stern–Volmer Method–I: Kq=KSV/τ0, τ0 = 10^−8 S, BSA emission 350 nm (λex 278 nm); for P (ratio of fluorescence quantum efficiency), BSA binding: intercept of F/F0 vs 1/[BSA]; for ΔGb°, BSA binding, Stern–Volmer Method–II: −RT ln Kass, T = 298 K
T1 construct: purchased Sigma Aldrich
Protocol: The DNA/BSA binding properties were acquired from the emission spectral titration with the supporting of the JASCO FP-6300 spectrofluorometer between the 200 and 800 nm regions. It is additional evidence for the complexes’ manner of DNA binding. While DNA (200 µM) was present or absent, we vigilantly monitored the intensity variations between 610 nm and 510 nm during the initial emission and excitation of EB [27]. Correspondingly, the emission titrations for BSA interaction with different concentrations between 2.5 μM and 25 μM for all samples were conducted in a Tris-HCl buffer solution (pH: 7.4) between the regions of 300 nm and 400 nm. […]
experiments were measured for BSA interaction in the range of 300 –400 nm, using a fluorescence cuvette with a path length of 1 cm. all test compounds have no substantial fluorescence emission rate in any of the above ranges in Tris-HCl buffer solution (pH=7.2).
Therefore, BSA interaction tests are not impaired in the interaction with the complexes [ 28].
In the experiment, the emission of BSA solution (25 µM) in 50 mM Tris –HCl /1 mM NaCl […]
While raising the test compound ’s concentration (0-25 µM), the intensity of the BSA decreases due to static quenching in the generation of ground state BSA – complex adduct. The observations of the BSA molecule at the excitation wavelength (278 nm) and at the emission wavelength (350 nm) that both of […]
Fcorr = Fobs × e[(Aex× dex) + (Aem× dem)]/ 2 = Fobs × e(Aex + Aem)/ 2 (S12) Fcorr and F obs are represented as the IFE-corrected emission and observed (uncorrected) emission intensities, respectively. d ex and d em are denoted as the cuvette path lengths in the […]
excitation and emission directions, respectively. Also, the alteration in absorbance (OD) at the excitation and fluorescence wavelengths, respectively, is sometimes referred to as A ex and […]
F = 1+KSV [Q] = 1+ Kq τ0 (S13)
Where [Q] is represented as the sample concentration (quencher), the emission intensities F 0 and F are those in the […] of the quencher, respectively.
F ) = log Kass + nlog [Q] (S14)
KEB[EB] = Kapp[compound] (S15)
∆F = (F 0–F), Equation (16) was utilized to examine the Lineweaver –Burk binding constant (KLB) from the linear regression plot of 1/(F0–F) vs 1/[Q]. […]
γ =(F0–F)/F0, CF is denoted as the concentration of sample alone, the linear regression plot of (γ/CF) vs γ was employed to support equation (17), which was used to determine the values of KSA and n, respectively.
2.2.6. FRET calculation by Förster’s theory
Calculating FRET (Fluorescence Resonance Energy Transfer) is a crucial approach in determining the critical distance (r) between donor (BSA) and acceptor (test compound) molecules, in which the binding affinity between the BSA-complex systems could be evalued according to Förster’s theory. The overlap of the emission spectrum of the donor (BSA) and the absorption spectrum of the acceptor (compound) describes that the acceptor (compound) group may get excited as a result of the excited donor's (BSA) energy being lost to the ground

CT-DNA = test: DNA binding affinity by viscometric (hydrodynamic) titration; design: species or system calf; details: for Relative Specific Viscosity (η/η0)^1/3: DNA 100 µM; for Slope of (η/η0)^1/3 vs [Compound]/[DNA]: linear plot, R 0.2–1.0
Protocol: The hydrodynamic titrations were carried out for all substances along with ethidium bromide (control) at 20, 40, 60, 80, 100 µM concentrations. In the Ostwald viscometer, these substances were also separately treated with the deoxyribonucleic acid solution (100 µM).
2.2.4. Viscometry-based titration for investigation of DNA binding
The Viscometry-based titration measurements were further supportive and delivered data about the binding modes between test compound and DNA base pairs. Nevertheless, it does not deliver definite confirmation for the exact mode of interactions. The experiment performed for all test compounds and ethidium bromide (control) at various concentrations 20, 40, 60, 80, 100 µM and each compound mixed with the CT-DNA solution (100 µM) in the Ostwald viscometer. With an accuracy of 0.01 seconds, a digital stopwatch was used to measure the average flow time. Due to the enhancement of the DNA's overall contour length during the separation of base pairs at intercalation sites, the classical intercalative mode […]
Generally, the compounds may result in less positive/negative or no viscosity change if they bind with DNA base pairs via […]
major or minor grooves [ 26]. […]
compounds via intercalation.

Pseudomonas aeruginosa = test: Agar disc diffusion antibacterial test; details: for diameter of clear zone inhibition / Inhibition %: D, (-) Pseudomonas aeruginosa; for diameter of clear zone inhibition: 20 µL of 100 µM on 6 mm disc, Control (DMSO) = 6 mm; for Inhibition %: (T–C)/T × 100

T1 sequence (P02769 25-607): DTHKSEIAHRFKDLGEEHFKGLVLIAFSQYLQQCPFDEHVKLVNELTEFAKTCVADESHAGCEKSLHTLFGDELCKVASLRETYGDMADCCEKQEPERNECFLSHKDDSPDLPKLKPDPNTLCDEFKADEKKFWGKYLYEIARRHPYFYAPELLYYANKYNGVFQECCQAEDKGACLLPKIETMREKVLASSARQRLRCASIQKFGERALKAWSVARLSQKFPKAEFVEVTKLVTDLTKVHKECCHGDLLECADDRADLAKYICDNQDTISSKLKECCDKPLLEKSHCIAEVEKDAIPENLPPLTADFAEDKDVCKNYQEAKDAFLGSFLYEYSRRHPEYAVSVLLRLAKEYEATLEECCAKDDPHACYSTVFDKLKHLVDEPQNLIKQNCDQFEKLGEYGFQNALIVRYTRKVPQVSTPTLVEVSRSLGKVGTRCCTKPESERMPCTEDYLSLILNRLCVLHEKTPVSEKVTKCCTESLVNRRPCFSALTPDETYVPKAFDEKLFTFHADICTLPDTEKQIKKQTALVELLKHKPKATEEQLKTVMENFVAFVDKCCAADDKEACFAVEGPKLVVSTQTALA

| Compound | KSV (Stern-Volmer binding constant), BSA binding, Method–I (BSA) [M⁻¹] | Kass (association binding constant), BSA binding, Stern–Volmer Method–II (BSA) [M⁻¹] | n (number of binding sites), BSA binding, Stern–Volmer Method–II (BSA) | Kq (bimolecular quenching rate constant), BSA binding, Stern–Volmer Method–I (BSA) [M⁻¹ s⁻¹] | P (ratio of fluorescence quantum efficiency), BSA binding (BSA) | ΔGb°, BSA binding, Stern–Volmer Method–II (BSA) | Relative Specific Viscosity (η/η0)^1/3 (CT-DNA; R = [Complex]/[DNA] = 0.2) | Relative Specific Viscosity (η/η0)^1/3 (CT-DNA; R = [Complex]/[DNA] = 0.4) | Relative Specific Viscosity (η/η0)^1/3 (CT-DNA; R = [Complex]/[DNA] = 0.6) | Relative Specific Viscosity (η/η0)^1/3 (CT-DNA; R = [Complex]/[DNA] = 0.8) | Relative Specific Viscosity (η/η0)^1/3 (CT-DNA; R = [Complex]/[DNA] = 1.0) | Slope of (η/η0)^1/3 vs [Compound]/[DNA] (CT-DNA) | diameter of clear zone inhibition (Pseudomonas aeruginosa) [mm] | Inhibition % (Pseudomonas aeruginosa) [%] | zone of inhibition at 100 µM (Pseudomonas aeruginosa; Pseudomonas aeruginosa, read-out: diameter of clear zone inhibition) [mm] |
| --- | --- | --- | --- | --- | --- | --- | --- | --- | --- | --- | --- | --- | --- | --- | --- |
| [Cu+2].[O-]c1ccccc1N=Cc1ccc(N2CCOCC2)cc1.[O-]c1ccccc1N=Cc1ccc(N2CCOCC2)cc1.c1cnc2c(c1)ccc1cccnc12 [(1b), [Cu^II(L)2(phen)]] | 95640 | 71990 | 1.021 | 9.564e+12 | 0.322 | –27.71 kJM^−1 | 0.82 | 1.10 | 1.25 | 1.45 | 1.71 | 1.0805 | 9 | 33 |  |
| [O-]c1ccccc1N=Cc1ccc(N2CCOCC2)cc1.[O-]c1ccccc1N=Cc1ccc(N2CCOCC2)cc1.[Zn+2].c1cnc2c(c1)ccc1cccnc12 [(2b), [Zn^II(L)2(phen)]] | 79350 | 59840 | 1.009 | 7.935e+12 | 0.285 | –27.25 kJM^−1 | 0.80 | 0.91 | 1.16 | 1.21 | 1.53 | 0.840 | 08 | 25 |  |
| Oc1ccccc1N=Cc1ccc(N2CCOCC2)cc1 [(HL), 2-(4-morpholinobenzylideneamino)phenol] | 26390 |  | 0.958 | 2.639e+12 | 0.225 | –23.86 kJM^−1 | 0.61 | 0.67 | 0.75 | 0.85 | 1.01 | 0.462 and 0.4616 |  | 25 | 8 |
